These are literature values, as cited in patent US6419954B1, “Tablets and methods for modified release of hydrophilic and other active agents” (Yamanouchi Pharmaceutical Co., Ltd., priority 2000, dated 2002).

Counter-ions that a name gives are not always drawn. Like-named read-outs stand apart in the source and are kept apart here.

The conditions of the data set: at 25° C.

Consider `CC1OC2(CS1)CN1CCC2CC1` (racemic) [Cevimeline HCl, (+/−)-cis-2-methylspiro [1,3-oxathiolane-5,3′-quinuclidine]hydrochloride, hemihydrate], for which the water solubility result was “about 766 mg/ml” (hemihydrate) and “about 1,400 mg/ml” (listed as SNI-2011, hemihydrate).
